Assay results taken from ChEMBL document CHEMBL5291721, “A preclinical secondary pharmacology resource illuminates target-adverse drug reaction associations of marketed drugs” (Nat Commun, 2023).

Legend:
B1 bradykinin receptor = molecular target: T1, B1 bradykinin receptor (Homo sapiens, UniProt P46663)
T1 sequence (P46663 whole entry): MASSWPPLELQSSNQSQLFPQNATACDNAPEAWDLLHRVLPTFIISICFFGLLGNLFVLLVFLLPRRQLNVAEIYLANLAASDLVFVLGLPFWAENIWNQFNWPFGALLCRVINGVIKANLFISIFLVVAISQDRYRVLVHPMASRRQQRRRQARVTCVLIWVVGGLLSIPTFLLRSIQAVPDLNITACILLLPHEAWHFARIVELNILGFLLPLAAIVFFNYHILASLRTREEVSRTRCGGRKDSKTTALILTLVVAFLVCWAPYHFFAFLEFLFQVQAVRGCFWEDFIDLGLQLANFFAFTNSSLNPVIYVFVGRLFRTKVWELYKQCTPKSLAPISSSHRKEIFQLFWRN

[1] = molecular target: Gamma-aminobutyric acid type B receptor subunit 1 (Homo sapiens, UniProt Q9UBS5)
Chain of Gamma-aminobutyric acid type B receptor subunit 1 (Q9UBS5 whole entry): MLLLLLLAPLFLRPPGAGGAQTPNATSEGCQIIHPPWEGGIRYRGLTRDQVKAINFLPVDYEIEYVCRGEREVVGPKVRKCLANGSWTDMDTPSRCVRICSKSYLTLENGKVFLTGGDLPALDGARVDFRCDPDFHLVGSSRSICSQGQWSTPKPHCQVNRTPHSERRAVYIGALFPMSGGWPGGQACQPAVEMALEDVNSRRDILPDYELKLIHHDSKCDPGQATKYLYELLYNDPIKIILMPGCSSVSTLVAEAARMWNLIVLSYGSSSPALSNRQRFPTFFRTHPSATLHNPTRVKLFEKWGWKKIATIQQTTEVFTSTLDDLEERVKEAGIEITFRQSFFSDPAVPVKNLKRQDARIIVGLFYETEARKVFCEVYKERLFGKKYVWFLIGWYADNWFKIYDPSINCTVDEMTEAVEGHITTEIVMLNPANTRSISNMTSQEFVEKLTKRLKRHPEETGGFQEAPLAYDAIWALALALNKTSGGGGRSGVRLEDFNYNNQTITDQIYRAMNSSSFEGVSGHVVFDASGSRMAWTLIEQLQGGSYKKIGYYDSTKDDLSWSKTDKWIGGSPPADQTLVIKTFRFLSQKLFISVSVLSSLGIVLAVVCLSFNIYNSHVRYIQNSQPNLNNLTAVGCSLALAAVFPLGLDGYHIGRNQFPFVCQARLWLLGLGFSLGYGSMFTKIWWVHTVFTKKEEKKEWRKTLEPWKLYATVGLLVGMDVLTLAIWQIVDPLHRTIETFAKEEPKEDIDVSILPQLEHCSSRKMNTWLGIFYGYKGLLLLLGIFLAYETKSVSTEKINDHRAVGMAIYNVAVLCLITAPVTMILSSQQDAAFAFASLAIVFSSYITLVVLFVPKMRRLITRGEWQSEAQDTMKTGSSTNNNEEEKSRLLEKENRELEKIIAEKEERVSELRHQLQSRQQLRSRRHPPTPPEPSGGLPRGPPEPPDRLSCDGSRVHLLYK

[2] = molecular target: Hydroxycarboxylic acid receptor 2 (Homo sapiens, UniProt Q8TDS4)
Chain of Hydroxycarboxylic acid receptor 2 (Q8TDS4 whole entry): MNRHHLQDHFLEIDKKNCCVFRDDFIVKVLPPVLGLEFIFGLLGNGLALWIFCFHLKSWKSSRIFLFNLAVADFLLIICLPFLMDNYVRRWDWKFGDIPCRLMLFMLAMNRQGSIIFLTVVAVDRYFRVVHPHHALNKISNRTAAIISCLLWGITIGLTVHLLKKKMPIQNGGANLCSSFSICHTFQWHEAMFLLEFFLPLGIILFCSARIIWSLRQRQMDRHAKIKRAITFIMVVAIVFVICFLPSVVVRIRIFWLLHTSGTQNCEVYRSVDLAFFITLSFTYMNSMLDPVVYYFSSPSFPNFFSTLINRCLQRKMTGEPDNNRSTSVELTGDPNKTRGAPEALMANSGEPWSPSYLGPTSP

[3] = molecular target: Sodium channel protein type 5 subunit alpha (Homo sapiens, UniProt Q14524); format: functional, cell-based
Chain of Sodium channel protein type 5 subunit alpha (Q14524 whole entry): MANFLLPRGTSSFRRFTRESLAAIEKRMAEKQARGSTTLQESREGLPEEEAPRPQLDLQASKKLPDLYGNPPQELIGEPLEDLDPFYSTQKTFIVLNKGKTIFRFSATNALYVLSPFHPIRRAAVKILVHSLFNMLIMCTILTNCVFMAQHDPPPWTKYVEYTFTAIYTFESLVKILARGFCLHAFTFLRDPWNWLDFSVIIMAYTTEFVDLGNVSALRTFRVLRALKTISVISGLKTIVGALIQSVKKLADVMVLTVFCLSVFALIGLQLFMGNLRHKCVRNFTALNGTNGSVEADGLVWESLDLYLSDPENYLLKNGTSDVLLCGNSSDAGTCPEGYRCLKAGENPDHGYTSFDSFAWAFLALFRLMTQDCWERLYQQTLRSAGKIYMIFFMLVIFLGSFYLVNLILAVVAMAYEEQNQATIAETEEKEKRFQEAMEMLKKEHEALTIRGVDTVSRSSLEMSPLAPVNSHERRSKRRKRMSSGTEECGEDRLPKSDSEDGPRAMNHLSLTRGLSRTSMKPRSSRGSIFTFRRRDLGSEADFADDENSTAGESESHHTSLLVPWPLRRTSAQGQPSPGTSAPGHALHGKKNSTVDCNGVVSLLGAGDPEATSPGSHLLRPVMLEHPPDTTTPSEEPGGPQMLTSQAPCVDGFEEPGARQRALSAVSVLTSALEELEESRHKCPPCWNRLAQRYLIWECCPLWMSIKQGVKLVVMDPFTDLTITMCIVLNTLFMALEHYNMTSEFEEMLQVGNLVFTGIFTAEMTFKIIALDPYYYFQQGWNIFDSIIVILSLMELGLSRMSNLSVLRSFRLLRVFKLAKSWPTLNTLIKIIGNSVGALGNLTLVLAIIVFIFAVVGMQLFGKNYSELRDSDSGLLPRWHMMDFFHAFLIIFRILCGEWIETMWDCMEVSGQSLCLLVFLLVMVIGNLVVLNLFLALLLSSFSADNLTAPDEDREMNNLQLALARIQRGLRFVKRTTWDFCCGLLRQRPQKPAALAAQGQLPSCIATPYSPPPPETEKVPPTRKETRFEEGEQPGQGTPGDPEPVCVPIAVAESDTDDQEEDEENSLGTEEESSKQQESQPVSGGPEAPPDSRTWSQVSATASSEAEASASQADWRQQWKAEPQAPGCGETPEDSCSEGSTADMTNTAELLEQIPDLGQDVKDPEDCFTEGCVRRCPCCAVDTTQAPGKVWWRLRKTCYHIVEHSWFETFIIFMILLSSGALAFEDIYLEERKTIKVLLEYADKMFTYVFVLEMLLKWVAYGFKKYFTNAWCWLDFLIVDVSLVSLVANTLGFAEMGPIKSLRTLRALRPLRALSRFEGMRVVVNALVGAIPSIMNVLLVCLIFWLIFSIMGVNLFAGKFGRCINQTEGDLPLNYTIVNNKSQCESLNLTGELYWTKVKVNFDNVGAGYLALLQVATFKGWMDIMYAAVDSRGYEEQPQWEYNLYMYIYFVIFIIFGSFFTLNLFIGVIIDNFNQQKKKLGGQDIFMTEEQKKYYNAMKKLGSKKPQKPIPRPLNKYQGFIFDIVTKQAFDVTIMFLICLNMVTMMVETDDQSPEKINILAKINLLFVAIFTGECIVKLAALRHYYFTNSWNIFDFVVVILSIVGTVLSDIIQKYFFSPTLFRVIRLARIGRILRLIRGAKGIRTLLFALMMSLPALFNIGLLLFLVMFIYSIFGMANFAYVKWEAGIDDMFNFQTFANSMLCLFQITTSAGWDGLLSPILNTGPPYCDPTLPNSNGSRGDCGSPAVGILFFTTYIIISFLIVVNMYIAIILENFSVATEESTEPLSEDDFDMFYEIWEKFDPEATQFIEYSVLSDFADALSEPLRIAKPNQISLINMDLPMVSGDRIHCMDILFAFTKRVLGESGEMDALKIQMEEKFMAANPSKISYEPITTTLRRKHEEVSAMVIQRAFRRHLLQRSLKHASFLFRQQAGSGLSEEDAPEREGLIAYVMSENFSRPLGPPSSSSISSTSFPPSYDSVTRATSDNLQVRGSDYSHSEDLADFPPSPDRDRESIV

[4] = molecular target: Synaptic vesicular amine transporter (Rattus norvegicus, UniProt Q01827); format: functional
Chain of Synaptic vesicular amine transporter (Q01827 whole entry): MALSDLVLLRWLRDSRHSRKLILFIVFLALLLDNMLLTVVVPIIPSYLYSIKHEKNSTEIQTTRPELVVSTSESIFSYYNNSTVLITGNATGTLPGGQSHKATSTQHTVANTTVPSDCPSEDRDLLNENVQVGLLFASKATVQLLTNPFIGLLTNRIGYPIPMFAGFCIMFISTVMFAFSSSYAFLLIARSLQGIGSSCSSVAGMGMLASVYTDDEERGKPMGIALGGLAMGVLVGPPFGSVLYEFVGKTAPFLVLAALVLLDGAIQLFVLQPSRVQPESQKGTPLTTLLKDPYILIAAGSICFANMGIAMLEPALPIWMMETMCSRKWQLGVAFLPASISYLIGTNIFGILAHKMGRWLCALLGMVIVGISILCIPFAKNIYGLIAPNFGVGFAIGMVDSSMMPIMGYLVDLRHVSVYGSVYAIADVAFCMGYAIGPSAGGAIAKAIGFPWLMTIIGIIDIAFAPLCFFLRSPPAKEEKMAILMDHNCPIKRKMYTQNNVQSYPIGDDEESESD

Androgen receptor [5] = molecular target: T2, Androgen receptor (Rattus norvegicus, UniProt P15207); format: functional
T2 sequence (P15207 whole entry): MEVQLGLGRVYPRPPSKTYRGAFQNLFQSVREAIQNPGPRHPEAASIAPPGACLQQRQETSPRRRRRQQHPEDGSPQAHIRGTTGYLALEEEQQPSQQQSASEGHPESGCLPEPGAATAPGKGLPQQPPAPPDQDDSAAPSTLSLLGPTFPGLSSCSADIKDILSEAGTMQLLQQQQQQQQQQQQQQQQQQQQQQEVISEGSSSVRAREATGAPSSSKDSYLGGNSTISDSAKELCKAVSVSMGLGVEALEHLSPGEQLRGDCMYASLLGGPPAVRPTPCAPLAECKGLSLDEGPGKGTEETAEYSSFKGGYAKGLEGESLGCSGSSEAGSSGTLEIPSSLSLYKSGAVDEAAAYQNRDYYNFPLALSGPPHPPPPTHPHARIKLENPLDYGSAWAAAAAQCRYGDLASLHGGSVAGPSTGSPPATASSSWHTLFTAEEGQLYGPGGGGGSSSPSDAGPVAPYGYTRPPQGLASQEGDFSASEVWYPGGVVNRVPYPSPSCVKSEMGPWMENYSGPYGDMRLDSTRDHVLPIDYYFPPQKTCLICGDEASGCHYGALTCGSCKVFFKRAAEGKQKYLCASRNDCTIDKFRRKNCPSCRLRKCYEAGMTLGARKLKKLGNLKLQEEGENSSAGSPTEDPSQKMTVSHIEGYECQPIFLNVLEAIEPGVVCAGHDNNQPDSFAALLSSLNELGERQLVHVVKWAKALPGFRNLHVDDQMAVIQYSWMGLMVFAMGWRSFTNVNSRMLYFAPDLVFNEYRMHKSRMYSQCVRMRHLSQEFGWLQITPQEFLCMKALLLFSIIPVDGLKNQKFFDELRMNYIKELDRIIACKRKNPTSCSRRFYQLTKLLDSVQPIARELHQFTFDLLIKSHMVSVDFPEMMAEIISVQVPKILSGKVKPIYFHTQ

[6] = molecular target: T3, Muscarinic acetylcholine receptor M5 (Homo sapiens, UniProt P08912)
T3 sequence (P08912 whole entry): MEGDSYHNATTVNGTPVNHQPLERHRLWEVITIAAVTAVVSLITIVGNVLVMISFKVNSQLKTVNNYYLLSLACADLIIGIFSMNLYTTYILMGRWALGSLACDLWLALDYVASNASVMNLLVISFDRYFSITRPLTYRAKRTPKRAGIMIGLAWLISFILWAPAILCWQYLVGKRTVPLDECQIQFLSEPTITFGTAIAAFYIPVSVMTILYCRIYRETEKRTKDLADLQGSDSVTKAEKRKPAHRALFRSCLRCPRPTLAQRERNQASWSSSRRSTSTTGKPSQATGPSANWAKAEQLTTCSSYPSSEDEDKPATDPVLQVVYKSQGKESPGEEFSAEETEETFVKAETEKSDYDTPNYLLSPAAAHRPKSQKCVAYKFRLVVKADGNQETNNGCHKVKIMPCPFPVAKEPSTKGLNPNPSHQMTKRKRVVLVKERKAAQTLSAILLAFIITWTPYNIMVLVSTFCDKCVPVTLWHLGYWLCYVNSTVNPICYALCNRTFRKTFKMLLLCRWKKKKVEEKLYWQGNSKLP

[7] = molecular target: 5-hydroxytryptamine receptor 6 (Homo sapiens, UniProt P50406)
Chain of 5-hydroxytryptamine receptor 6 (P50406 whole entry): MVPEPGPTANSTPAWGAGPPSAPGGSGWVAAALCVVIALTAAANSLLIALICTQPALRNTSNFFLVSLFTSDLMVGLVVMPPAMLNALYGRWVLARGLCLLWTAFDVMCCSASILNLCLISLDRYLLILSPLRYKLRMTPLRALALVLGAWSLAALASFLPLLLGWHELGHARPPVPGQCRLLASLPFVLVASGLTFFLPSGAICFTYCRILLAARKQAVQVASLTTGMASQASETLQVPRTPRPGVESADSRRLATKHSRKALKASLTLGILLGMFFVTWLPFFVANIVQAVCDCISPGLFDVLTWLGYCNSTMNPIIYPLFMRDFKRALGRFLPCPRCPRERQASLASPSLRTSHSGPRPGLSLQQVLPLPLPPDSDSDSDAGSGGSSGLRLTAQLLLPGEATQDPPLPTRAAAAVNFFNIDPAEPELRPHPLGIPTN

Cannabinoid receptor 1 = Cannabinoid receptor 1 (Homo sapiens, UniProt P21554); format: functional
Chain of Cannabinoid receptor 1 (P21554 whole entry): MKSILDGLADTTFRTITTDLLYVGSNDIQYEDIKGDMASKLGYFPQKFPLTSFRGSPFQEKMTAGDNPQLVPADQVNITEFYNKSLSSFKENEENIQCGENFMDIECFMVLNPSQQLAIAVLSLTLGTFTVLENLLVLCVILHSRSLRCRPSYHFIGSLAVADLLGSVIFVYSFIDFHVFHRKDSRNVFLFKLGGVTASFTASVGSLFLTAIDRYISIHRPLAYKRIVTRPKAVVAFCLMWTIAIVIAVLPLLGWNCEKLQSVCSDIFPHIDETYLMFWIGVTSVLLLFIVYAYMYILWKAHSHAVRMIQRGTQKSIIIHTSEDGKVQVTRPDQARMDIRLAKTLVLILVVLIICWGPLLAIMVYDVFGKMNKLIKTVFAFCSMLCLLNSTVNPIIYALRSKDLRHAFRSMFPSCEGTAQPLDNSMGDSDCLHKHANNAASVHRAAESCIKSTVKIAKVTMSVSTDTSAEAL

[8] = molecular target: 5-hydroxytryptamine receptor 7 (Homo sapiens, UniProt P34969)
Androgen receptor [9] = molecular target: T2, Androgen receptor
Note: assay procedure not described here.

Structure (SMILES)	AC50 (B1 bradykinin receptor) [µM]	AC50 [1] [µM]	AC50 [3] [µM]	AC50 [4] [µM]	also measured
Cc1cn([C@H]2C[C@H](N=[N+]=[N-])[C@@H](CO)O2)c(=O)[nH]c1=O [ZIDOVUDINE]	> 30	> 10	> 30	–	AC50 [2]: > 10 µM
CCCCCCOc1nsnc1C1=CCCN(C)C1 [XANOMELINE]	–	–	19	1.8	–
O=C(CCNNC(=O)c1ccncc1)NCc1ccccc1 [NIALAMIDE]	–	–	> 50	> 30	–
CC[C@H]1[C@@H](O)[C@@H]2[C@H](CC[C@]3(C)[C@@H]([C@H](C)CCC(=O)O)CC[C@@H]23)[C@@]2(C)CC[C@@H](O)C[C@@H]12 [OBETICHOLIC ACID]	–	–	> 30	> 30	AC50 (Androgen receptor [5]): > 30 µM
Cc1ccc(-c2cc(C(F)(F)F)nn2-c2ccc(S(N)(=O)=O)cc2)cc1 [CELECOXIB]	> 30	> 10	–	–	AC50 [6]: > 10 µM; AC50 [2]: > 10 µM; AC50 [7]: > 10 µM; AC50 (Cannabinoid receptor 1): > 10 µM; AC50 [8]: > 10 µM; AC50 (Androgen receptor [9]): > 30 µM
CN(C)CC(c1ccc(O)cc1)C1(O)CCCCC1 (stereo not given) [DESVENLAFAXINE]	–	–	–	> 30	–
CO[C@H]1C[C@@H]2CC[C@@H](C)[C@@](O)(O2)C(=O)C(=O)N2CCCC[C@H]2C(=O)O[C@H]([C@H](C)C[C@@H]2CC[C@@H](O)[C@H](OC)C2)CC(=O)[C@H](C)/C=C(\C)[C@@H](O)[C@@H](OC)C(=O)[C@H](C)C[C@H](C)/C=C/C=C/C=C/1C [SIROLIMUS]	> 30	> 10	–	23	AC50 (Androgen receptor [9]): 11.9 µM
O=C(O)c1cc(O)ccc1O [GENTISIC ACID]	–	–	–	> 30	–
